Results reported in article PMC10254531, “The Effects of 1-O-Acetylbritannilactone Isolated from Inula britannica Flowers on Human Neutrophil Elastase and Inflammation of RAW 264.7 Cells and Zebrafish Larvae” (Molecules, 2023).

How the values were obtained:
[1] = molecular target: T1, human neutrophil elastase (HNE) (Homo sapiens, UniProt P08246); experiment: chromogenic enzyme assay with MeO-Suc-AAPV-pNA; Lineweaver-Burk and Dixon plots; assay type: biochemical
T1 construct: gene ELANE
T1 sequence (P08246 30-247): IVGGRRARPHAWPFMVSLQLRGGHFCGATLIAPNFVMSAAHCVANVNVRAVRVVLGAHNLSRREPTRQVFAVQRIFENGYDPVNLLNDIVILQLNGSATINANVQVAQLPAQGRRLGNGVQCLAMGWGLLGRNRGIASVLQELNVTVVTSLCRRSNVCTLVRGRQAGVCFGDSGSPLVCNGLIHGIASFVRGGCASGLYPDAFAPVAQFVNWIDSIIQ

[2] = molecular target: T1, human neutrophil elastase (HNE); experiment: chromogenic enzyme assay with MeO-Suc-AAPV-pNA (positive control); assay type: biochemical

Ki [1] [µM] | Structure (SMILES) | IC50 [2] [µM]
2.4 | C=C1C(=O)O[C@@H]2CC(C)=C([C@@H](C)CCCOC(C)=O)[C@@H](O)[C@H]12 [ABL, 1-O-acetylbritannilactone] | 
 | O=C(O[C@@H]1Cc2c(O)cc(O)cc2O[C@@H]1c1cc(O)c(O)c(O)c1)c1cc(O)c(O)c(O)c1 [epigallocatechin gallate] | 7.2 ± 0.5
